13 molecules from ChEMBL document CHEMBL3991601, “The target landscape of clinical kinase drugs” (Science, 2017) can be followed below.

Broadly, the Kd is a measure of binding affinity in units of concentration.

Counter-ions that a name gives are not always drawn. Activity calls are given as the source filed them. Rule as the data show it, for most assays here: actives have a measured Kd and inactives only a lower limit.

For assay [1], the target named is Serine/threonine-protein kinase SIK3 (Homo sapiens, UniProt Q9Y2K2).
Chain of Serine/threonine-protein kinase SIK3 (Q9Y2K2 whole entry): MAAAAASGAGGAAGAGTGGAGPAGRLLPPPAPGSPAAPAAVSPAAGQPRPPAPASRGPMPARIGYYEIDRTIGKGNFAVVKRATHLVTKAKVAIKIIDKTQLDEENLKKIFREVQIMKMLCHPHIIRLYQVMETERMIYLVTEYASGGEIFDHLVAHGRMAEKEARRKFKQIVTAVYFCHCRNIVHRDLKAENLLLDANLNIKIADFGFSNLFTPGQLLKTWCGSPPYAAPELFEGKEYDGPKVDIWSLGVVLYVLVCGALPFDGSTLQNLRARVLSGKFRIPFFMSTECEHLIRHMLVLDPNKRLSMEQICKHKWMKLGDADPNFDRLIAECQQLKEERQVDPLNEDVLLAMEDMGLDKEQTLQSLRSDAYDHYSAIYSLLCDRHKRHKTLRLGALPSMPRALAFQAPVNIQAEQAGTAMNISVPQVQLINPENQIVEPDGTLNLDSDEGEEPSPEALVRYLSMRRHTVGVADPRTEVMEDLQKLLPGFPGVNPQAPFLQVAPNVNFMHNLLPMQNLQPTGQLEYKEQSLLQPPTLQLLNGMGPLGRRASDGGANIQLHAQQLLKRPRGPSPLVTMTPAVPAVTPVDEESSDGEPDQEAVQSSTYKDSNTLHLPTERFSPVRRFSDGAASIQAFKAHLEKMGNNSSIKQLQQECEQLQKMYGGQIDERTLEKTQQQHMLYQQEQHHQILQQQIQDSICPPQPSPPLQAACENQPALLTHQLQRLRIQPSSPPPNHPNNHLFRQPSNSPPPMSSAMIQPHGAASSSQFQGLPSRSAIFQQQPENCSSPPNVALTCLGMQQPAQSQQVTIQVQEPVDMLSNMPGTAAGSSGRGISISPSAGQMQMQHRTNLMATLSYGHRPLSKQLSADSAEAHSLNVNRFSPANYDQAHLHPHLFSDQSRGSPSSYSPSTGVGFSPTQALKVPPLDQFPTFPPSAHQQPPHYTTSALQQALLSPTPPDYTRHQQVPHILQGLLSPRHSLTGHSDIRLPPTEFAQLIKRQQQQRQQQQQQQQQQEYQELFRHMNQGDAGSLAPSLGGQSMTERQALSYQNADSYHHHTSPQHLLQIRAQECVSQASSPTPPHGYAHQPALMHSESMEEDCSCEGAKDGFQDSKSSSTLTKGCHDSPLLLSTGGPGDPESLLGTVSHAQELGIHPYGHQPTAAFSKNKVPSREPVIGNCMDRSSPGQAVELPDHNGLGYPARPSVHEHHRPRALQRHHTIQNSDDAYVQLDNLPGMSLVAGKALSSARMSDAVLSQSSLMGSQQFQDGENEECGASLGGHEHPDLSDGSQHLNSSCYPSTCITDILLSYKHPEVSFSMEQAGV
For assay [2], the target named is Tyrosine-protein kinase Yes (Homo sapiens, UniProt P07947).
The target in assay [3] is T1, Serine/threonine-protein kinase LATS1 (Homo sapiens, UniProt O95835).
T1 sequence (O95835 whole entry): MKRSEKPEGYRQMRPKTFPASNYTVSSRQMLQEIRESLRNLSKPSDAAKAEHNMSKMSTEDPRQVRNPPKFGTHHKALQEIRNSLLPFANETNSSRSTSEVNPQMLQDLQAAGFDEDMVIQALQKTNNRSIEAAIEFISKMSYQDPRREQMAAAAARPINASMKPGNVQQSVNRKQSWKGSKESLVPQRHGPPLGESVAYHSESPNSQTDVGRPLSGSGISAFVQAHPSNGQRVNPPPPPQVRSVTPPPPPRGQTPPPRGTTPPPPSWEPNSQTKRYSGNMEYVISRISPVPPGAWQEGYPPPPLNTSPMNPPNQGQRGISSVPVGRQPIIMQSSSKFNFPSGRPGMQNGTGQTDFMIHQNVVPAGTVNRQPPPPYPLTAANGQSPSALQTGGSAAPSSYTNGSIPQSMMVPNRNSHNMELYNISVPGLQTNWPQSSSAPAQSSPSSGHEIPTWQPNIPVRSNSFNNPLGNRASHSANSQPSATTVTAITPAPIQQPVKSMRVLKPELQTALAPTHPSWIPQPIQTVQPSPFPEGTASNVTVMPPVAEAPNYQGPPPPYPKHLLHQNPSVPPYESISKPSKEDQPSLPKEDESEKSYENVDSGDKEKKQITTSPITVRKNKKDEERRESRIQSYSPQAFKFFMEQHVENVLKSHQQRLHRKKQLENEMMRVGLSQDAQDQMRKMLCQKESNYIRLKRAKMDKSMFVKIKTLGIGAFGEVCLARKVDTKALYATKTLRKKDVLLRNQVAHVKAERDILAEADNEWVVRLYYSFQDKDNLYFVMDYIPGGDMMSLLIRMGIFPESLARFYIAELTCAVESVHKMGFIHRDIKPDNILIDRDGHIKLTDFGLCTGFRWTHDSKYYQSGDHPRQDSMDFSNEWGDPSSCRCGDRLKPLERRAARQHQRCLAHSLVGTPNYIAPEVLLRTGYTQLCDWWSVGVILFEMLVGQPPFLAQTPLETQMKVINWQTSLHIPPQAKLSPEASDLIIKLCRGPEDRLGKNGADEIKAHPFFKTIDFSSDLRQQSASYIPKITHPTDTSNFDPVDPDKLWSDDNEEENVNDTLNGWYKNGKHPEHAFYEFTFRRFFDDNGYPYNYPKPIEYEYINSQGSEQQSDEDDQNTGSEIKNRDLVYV

In assay [4] the target is PAS domain-containing serine/threonine-protein kinase (Homo sapiens, UniProt Q96RG2).
Chain of PAS domain-containing serine/threonine-protein kinase (Q96RG2 whole entry, the tested form may be a part): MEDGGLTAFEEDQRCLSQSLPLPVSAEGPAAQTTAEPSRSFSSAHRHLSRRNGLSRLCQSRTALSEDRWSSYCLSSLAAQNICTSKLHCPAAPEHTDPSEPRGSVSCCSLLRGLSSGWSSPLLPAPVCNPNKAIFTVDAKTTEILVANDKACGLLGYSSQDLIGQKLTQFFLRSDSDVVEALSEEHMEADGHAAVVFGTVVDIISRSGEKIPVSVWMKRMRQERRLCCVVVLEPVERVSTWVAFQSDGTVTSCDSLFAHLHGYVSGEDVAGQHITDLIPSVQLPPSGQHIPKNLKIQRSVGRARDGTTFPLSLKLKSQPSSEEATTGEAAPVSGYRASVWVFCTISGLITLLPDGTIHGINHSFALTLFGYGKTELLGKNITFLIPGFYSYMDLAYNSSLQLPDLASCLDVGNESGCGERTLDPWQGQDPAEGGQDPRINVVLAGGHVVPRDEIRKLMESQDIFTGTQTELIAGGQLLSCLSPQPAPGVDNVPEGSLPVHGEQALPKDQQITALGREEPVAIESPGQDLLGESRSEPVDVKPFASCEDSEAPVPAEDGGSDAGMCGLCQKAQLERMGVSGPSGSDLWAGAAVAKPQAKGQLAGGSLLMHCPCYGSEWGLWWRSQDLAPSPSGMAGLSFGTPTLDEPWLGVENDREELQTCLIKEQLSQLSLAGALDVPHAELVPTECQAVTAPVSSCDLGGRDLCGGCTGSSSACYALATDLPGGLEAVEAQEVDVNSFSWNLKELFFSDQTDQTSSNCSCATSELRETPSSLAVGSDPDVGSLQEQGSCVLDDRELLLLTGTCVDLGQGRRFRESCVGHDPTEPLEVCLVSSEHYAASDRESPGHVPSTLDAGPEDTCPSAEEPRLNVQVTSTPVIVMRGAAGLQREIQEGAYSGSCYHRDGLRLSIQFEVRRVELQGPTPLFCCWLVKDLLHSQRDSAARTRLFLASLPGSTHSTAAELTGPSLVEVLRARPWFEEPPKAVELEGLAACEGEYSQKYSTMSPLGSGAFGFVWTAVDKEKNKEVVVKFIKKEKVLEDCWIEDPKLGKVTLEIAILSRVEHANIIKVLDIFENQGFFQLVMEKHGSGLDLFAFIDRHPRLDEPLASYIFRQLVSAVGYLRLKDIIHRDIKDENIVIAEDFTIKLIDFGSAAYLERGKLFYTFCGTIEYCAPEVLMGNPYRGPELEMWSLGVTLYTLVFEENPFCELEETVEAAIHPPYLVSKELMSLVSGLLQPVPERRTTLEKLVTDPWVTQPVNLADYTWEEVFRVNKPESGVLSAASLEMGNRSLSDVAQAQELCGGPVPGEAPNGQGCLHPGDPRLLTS
Assay [5] has as its target Dual specificity protein kinase CLK2 (Homo sapiens, UniProt P49760).
Another assay deals with Myosin-10 (Homo sapiens, UniProt P35580).
The target of assay [6] is Tyrosine-protein kinase Fyn (Homo sapiens, UniProt P06241).
Chain of Tyrosine-protein kinase Fyn (P06241 whole entry): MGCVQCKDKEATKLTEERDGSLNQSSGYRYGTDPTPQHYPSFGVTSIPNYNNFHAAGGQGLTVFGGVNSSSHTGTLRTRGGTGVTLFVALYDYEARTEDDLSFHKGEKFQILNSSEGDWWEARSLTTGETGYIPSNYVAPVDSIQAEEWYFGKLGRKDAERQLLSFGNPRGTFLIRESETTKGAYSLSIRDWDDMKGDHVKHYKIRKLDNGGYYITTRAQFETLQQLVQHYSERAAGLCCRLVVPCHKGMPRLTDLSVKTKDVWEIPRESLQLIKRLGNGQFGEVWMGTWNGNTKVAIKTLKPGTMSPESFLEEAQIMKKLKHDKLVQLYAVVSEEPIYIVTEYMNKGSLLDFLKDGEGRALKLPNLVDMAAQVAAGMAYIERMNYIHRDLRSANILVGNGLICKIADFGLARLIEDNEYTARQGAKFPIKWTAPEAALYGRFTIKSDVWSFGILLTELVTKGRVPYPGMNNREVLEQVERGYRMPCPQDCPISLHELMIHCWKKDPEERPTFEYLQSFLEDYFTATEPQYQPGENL
Assay [7] deals with MAP kinase-activated protein kinase 2 (Homo sapiens, UniProt P49137).
Chain of MAP kinase-activated protein kinase 2 (P49137 whole entry): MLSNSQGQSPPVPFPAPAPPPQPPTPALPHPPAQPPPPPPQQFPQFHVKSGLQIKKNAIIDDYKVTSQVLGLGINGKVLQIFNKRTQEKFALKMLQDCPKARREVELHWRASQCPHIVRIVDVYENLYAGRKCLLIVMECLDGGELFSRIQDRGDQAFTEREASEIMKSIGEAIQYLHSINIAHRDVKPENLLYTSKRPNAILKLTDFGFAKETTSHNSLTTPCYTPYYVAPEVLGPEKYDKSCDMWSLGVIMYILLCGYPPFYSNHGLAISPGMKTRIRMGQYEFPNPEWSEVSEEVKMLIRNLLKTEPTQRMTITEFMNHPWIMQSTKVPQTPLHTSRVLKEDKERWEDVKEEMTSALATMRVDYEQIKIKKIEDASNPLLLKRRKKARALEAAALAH
The target in assay [8] is Interleukin-1 receptor-associated kinase 1 (Homo sapiens, UniProt P51617).
Chain of Interleukin-1 receptor-associated kinase 1 (P51617 whole entry): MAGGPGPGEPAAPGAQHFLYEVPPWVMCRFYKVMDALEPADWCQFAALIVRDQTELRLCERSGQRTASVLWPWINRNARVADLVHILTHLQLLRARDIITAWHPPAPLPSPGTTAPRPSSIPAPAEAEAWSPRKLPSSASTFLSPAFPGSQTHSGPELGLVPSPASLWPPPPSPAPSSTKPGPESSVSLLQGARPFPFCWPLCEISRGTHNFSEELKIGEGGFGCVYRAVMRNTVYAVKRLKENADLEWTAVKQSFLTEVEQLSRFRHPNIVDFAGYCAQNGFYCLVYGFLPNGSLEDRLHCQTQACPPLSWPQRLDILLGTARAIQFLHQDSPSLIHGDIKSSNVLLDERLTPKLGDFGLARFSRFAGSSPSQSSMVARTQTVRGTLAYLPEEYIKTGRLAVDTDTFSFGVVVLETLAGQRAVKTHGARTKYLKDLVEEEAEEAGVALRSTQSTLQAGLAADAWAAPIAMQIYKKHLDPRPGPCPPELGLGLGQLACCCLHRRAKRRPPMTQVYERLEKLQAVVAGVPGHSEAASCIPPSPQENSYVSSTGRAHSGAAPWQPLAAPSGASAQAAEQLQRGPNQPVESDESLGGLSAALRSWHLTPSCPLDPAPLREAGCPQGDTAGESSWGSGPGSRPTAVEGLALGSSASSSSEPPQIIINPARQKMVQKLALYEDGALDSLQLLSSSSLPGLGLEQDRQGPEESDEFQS
Assay [9] deals with T2, Membrane-associated tyrosine- and threonine-specific cdc2-inhibitory kinase (Homo sapiens, UniProt Q99640).
T2 sequence (Q99640 whole entry): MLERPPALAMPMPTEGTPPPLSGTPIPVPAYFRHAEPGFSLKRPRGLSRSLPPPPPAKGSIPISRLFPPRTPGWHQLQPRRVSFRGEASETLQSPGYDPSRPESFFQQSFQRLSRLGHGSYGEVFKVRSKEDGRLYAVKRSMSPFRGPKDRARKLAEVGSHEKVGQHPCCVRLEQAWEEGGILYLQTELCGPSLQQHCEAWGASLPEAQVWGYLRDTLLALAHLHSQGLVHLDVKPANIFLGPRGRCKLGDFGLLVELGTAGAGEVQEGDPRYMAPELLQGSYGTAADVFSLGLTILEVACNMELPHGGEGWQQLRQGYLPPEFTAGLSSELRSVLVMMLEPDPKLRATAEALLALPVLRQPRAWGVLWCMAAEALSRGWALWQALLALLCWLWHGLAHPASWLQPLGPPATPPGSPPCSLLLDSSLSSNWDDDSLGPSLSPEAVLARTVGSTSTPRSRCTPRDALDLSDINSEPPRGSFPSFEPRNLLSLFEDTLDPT
Also: in the data inactive means no Kd found up to 30 µM.

Chain of Dual specificity protein kinase CLK2 (P49760 whole entry): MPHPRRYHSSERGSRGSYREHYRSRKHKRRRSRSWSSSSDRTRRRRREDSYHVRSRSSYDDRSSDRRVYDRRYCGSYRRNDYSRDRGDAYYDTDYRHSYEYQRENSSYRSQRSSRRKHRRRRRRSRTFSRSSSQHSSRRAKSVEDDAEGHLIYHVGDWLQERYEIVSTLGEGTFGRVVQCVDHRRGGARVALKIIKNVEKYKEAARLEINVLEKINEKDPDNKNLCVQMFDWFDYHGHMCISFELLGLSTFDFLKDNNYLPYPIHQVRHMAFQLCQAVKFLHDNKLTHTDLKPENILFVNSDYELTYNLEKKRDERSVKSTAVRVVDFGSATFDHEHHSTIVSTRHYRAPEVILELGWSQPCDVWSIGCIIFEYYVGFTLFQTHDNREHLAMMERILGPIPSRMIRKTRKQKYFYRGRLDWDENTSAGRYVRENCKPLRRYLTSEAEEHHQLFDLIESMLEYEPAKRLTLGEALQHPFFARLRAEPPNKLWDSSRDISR

For `C=CC(=O)N1CCC[C@H](n2c(=O)n(-c3ccc(Oc4ccccc4)cc3)c3c(N)ncnc32)C1`, the Kd was > 30 µM (inactive) in assay [1]; 0.005 µM in [2]; > 30 µM (inactive) in assay [3]; > 30 µM (inactive) in assay [4]; > 30 µM (inactive) in [5]; > 30 µM (inactive) at Myosin-10. The Kd was 0.005 µM in [6], > 30 µM (inactive) in assay [7], > 30 µM (inactive) in [8] and > 30 µM (inactive) in assay [9].

For `COCc1c(-c2ccc(NC(=O)Nc3cc(C(F)(F)F)ccc3F)c(F)c2)c2c(N)ncnn2c1CN1CCOCC1`, the Kd (in [1]; in assay [2]; in [3]; in assay [4]; in [5]; at Myosin-10) was > 30 µM (inactive) each time. The Kd in [6], in [7], in assay [8] and in [9] was > 30 µM (inactive) each time.

As to `NC(=O)Nc1cc(-c2cccc(F)c2)sc1C(=O)N[C@H]1CCCNC1` [AZD-7762], the Kd in assay [1] was 0.043 µM (active); in [3], > 30 µM (inactive); in assay [4], > 30 µM (inactive); in assay [5], > 30 µM (inactive); at Myosin-10, > 30 µM (inactive); in assay [6], 0.284 µM (active). Moreover, the Kd in assay [7], in assay [8] and in [9] was > 30 µM (inactive) each time.

Consider `Cc1cc(C(=O)NOCCO)c(Nc2ccc(I)cc2F)n(C)c1=O` [AZD-8330], for which the Kd (in assay [1]; in assay [2]; in assay [3]; in assay [4]; in assay [5]; at Myosin-10) was > 30 µM (inactive) throughout. For the same molecule, the Kd in assay [6], in [7], in [8] and in assay [9] was > 30 µM (inactive) throughout.

With `COc1cc2ncnc(Oc3cccc(NC(=O)Nc4cc(C(C)(C)C(F)(F)F)on4)c3)c2cc1OC` [CEP-32496], the Kd (in [1]; in [2]; in [3]; in assay [4]; in [5]; at Myosin-10) was > 30 µM (inactive) each time. In addition, the Kd was > 30 µM (inactive) in [6], 0.49 µM (active) in assay [7], > 30 µM (inactive) in assay [8] and > 30 µM (inactive) in assay [9].

In the case of `COc1c(OCCCN2CCOCC2)ccc2c1N=C(NC(=O)c1cnc(N)nc1)N1CCN=C21` [COPANLISIB], the Kd (in assay [1]; in [2]; in [3]; in [4]; in assay [5]; on Myosin-10) was > 30 µM (inactive) throughout. The Kd in [6], in assay [7], in assay [8] and in assay [9] was > 30 µM (inactive) in each case.

On to `C#Cc1cccc(Nc2ncnc3cc(OC)c(OCCCCCCC(=O)NO)cc23)c1` [CUDC-101], for which the Kd (in [1]; in [2]; in assay [3]; in assay [4]; in assay [5]; on Myosin-10) was > 30 µM (inactive) each time. For the same molecule, the Kd in assay [6], in assay [7], in assay [8] and in [9] was > 30 µM (inactive) each time.

In the case of `CCS(=O)(=O)N1CCN(c2ccc(Nc3ncc(C(N)=O)c(NC4CC4)n3)cc2)CC1` [Cerdulatinib Hydrochloride], the Kd was 13.6 µM (active) in assay [1]; > 30 µM (inactive) in assay [2]; 0.261 µM (active) in assay [3]; > 30 µM (inactive) in assay [4]; > 30 µM (inactive) in assay [5]; > 30 µM (inactive) on Myosin-10. Besides, the Kd in assay [6], in assay [7], in assay [8] and in [9] was > 30 µM (inactive) in each case.

In the case of `COc1ccc(S(=O)(=O)N(C(C)=O)c2ccccc2/C=C/c2cc[n+]([O-])cc2)cc1` [HMN-214], the Kd (in assay [1]; in assay [2]; in assay [3]; in assay [4]; in assay [5]; at Myosin-10) was > 30 µM (inactive) in each case. Moreover, the Kd in assay [6], in assay [7], in assay [8] and in assay [9] was > 30 µM (inactive) throughout.

Consider `NC1(c2ccc(-c3nc4ccn5c(=O)[nH]nc5c4cc3-c3ccccc3)cc2)CCC1` [MK-2206], for which the Kd (in assay [1]; in assay [2]; in assay [3]; in assay [4]; in assay [5]; on Myosin-10) was > 30 µM (inactive) in each case. Moreover, the Kd in assay [6], in assay [7], in [8] and in assay [9] was > 30 µM (inactive) each time.

Take `FC(F)(F)c1ccc(/C=C/c2nc(COc3ccc(CCCCn4ccnn4)cc3)co2)cc1` [MUBRITINIB]: the Kd (in [1]; in [2]; in [3]; in assay [4]; in assay [5]; on Myosin-10) was > 30 µM (inactive) throughout. Moreover, the Kd in [6], in assay [7], in assay [8] and in assay [9] was > 30 µM (inactive) throughout.

On to `COc1ncc(-c2ccc3nccc(-c4ccnnc4)c3c2)cc1NS(=O)(=O)c1ccc(F)cc1F` [OMIPALISIB], for which the Kd (in assay [1]; in assay [2]; in assay [3]; in assay [4]; in assay [5]; on Myosin-10) was > 30 µM (inactive) throughout. Further, the Kd in assay [6], in assay [7], in [8] and in [9] was > 30 µM (inactive) in each case.

As for `Cc1cnc(NC(=O)Nc2cc(Br)c(C)cc2OC[C@@H]2CNCCO2)cn1` [RABUSERTIB], the Kd (in [1]; in [2]; in assay [3]; in assay [4]; in [5]; at Myosin-10) was > 30 µM (inactive) in each case. In addition, the Kd in assay [6], in assay [7], in [8] and in assay [9] was > 30 µM (inactive) each time.
